Measured values taken from article PMC7996082, “The translocator protein ligands as mitochondrial functional modulators for the potential anti-Alzheimer agents” (Journal of Enzyme Inhibition and Medicinal Chemistry, 2021).

Tests used:
[1] = Liver microsomal stability; type: in vitro ADME; conditions: human, liver microsomes, 1 µM compound, 0.5 mg/mL microsomes, 30 min, 37 °C; read-out: Human Liver Microsomal Stability (% remaining after 30 min)
Procedure: Liver microsomes (human, dog, rat, and mouse; 0.5 mg/mL) were incubated with 1 µM of each test compound in the presence of potassium phosphate buffer (PPB) for 5 min at 37 °C. A solution of the NADPH regeneration system (#44332000, Oriental Yeast Co., Japan) was added to begin metabolic reactions of liver microsomes. The resulting mixtures were incubated for 30 min at 37 °C, and the reaction was terminated by the addition of a cold MeCN solution containing an internal standard (chlorpropamide). The mixture was separated by centrifugation (14,000 rpm for 5 min at 4 °C), and the supernatant was analysed by LC-MS/MS (Shimadzu Nexera XR system and TSQ vantage; Thermo Scientific).

[2] = MTT assay: HT22 cell viability with compound alone; type: cell-based, mouse; conditions: mouse, HT22 cells; HT22 cell viability after 24 h of treatment with 5 μM compound, no Aβ
Method in brief: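 Viability is by MTT read-out at 560 nm after 2 h MTT and 2 h acidified Triton X-100/isopropanol solubilisation at 37 °C. Before that, cells plated 24 h earlier (5,000/well) received compound (5 µM solution) for 24 h at 37 °C. Values are referenced to 5 µM DMSO vehicle set as […].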

[3] = tested on: acute AD model mice (Aβ1-42 ICV injected ICR mice); experiment: Y-maze spontaneous alternation test in acute AD model mice; type: in vivo, mouse; conditions: 30 mg/kg daily, 6 days; for Recovery of Y-maze spontaneous alternations: i.p.
Procedure: The acute AD mice model was prepared by administration of Aβ1-42 solution (10% DMSO/90% PBS) to male ICR mice (6 weeks old, 30 − 33 g) via intracerebroventricular (ICV) injection (Aβ1-42 dose: 500 pmol/mouse) as described previously. The wild type mice (B6C3F1) and double APP/PS1 transgenic mice (Tg AD mice model; APPswe/PSEN1dE9) were purchased from Jackson Laboratory (Bar Harbour, ME, USA). The Tg AD model mice were 11 months old at the beginning of the behaviour test, and were housed for 1 month in a room under controlled temperature and fed ad libitum. The behaviour tests were conducted during daytime in air-controlled and soundproof experiment room. The animal experiments were abided by the guidelines of the Institutional Animal Care and Use Committee of Korea Institute of Science and Technology.
To the mice of the acute AD model (n = 7 per group), each test compound (test compound in 20% cyclodextrin, 30 mg/kg) was […] injected daily for 6 days. The Y-maze spontaneous alternation test was performed 1 day after the administration of each test compound. The Y maze was made of three equally spaced black plastic arms (40 L × 10 W × 12 H cm) positioned at an equal angle. Each mouse was placed at the end of one arm and allowed to move freely through the maze for 8 min, and the sequence of arm entries was recorded. The arm entry of the mouse was counted when the all four limbs were within an arm. A set of entries into all three arms is considered as a spontaneous alternation. The spontaneous alternation (%) was calculated by the following equation: Spontaneous alternation (%)=100x[number of alternations/(total number of arm entries – 2)]
We evaluated in vivo activity of 7 and 14 in an acute AD mouse model. The acute AD model mice were generated by the administration of Aβ1-42 peptide (500 pmol) according to the previously reported method, and each compound (30 mg/kg daily) was administered intraperitoneally for 6 days. Piracetam (30 mg/kg daily) was also administered in parallel for comparison. The Y-maze spontaneous alternation tests were performed to measure the recovery of learning and memory deficit in acute AD model mice[38]^,[39]. […] We believe that the treatment of 7 was beneficial for ameliorating Aβ-induced cognitive impairments.

[4] = molecular target: T1, recombinant human TSPO (Homo sapiens, UniProt P30536); experiment: Surface plasmon resonance (SPR) binding affinity; conditions: mean ± SD of three measurements
T1 construct: purchased Origene Technologies, Inc. TP320107
Procedure: To determine the binding affinities of the selected compounds, the KD values were measured by using Biacore T200 optical biosensor system (GE Healthcare). The recombinant human TSPO (18 kDa, Origene Technologies, Inc., No.: TP320107) was covalently immobilised on a CM5 chip (GE Healthcare) at 25 °C via standard amine-coupling protocols in 10 mM sodium acetate (pH 4.5) at a flow rate of 10 µL/min for 1500s (immobilised protein densities: 5,000–6,000 response unit (RU)). The tested compounds were initially prepared at 10 mM in DMSO, and serially diluted in PBS-P buffer (10 mM NaH2PO4, 150 mM NaCl, pH 7.4) to 1% DMSO. For each tested compound, the kinetic values were measured using a five-point concentration series, 0.001, 0.01, 0.5, 1, and 5 µM. Multiple blank samples of running buffer alone (0 µM of tested compounds) were incorporated in every measurement. The filtered PBS-P buffer containing 1% DMSO was used as a running buffer during the SPR experiments. To measure the kinetic values, a series of different concentrations were injected over the immobilised chip at a flow rate of 50 µL/min (contact time: 120 s, dissociation time: 300 s), followed by the regeneration process at a flow rate of 50 µL/min (contact time: 120 s, stabilisation time: 10 s). The KD value of each compound was calculated by Biacore T200 evaluation software (GE Healthcare) after the standard solvent correction process.

[5] = molecular target: T2, CYP2C19 (Homo sapiens, UniProt P33261); experiment: CYP inhibition assay (Vivid CYP450 screening kit); type: in vitro ADME; conditions: 10 μM compound
T2 construct: purchased Invitrogen, Madison, WI, USA
Method in brief: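 Recombinant human CYP isozymes in baculosomes with rabbit NADPH-P450 reductase and a G6P/G6PDH regeneration system (100 mM potassium phosphate, pH 8.0) were preincubated with compound 5 min at 37 °C. Reactions were started with Vivid fluorogenic substrates and 0.1 mM NADP+, and % remaining activity was read by fluorescence after 20 min.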

T2 sequence (P33261 whole entry): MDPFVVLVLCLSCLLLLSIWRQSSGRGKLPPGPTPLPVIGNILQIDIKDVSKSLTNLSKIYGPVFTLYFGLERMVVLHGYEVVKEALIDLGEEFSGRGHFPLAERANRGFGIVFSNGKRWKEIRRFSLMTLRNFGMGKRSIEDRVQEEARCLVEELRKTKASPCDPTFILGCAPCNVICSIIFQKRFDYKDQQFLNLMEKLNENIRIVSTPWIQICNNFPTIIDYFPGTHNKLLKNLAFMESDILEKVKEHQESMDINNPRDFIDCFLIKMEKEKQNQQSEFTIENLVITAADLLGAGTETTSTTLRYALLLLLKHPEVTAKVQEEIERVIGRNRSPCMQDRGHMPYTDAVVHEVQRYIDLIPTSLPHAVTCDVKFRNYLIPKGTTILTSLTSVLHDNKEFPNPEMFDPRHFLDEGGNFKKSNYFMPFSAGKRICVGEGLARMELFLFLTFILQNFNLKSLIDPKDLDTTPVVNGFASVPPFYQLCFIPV
T1 sequence (P30536 whole entry): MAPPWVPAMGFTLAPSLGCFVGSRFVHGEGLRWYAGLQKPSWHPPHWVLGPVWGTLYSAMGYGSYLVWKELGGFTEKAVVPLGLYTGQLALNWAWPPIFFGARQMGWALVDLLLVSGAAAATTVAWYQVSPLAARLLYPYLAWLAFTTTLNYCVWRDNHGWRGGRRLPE

remaining at 0.5 h, 1 µM [1] [%]	Kd [4] [nM]	CYP450 (% remaining Activity at 10 μM) CYP2C19 [5] [%]	Compound	viability at 24 h, 5 µM [2] [%]	Recovery of Y-maze spontaneous alternations [3] [%]	Y-maze activity in acute AD model (in words) [3]
49.6	630 ± 330		CCOc1ccc(-n2c(SCC(=O)Nc3ccc(OC)c(OC)c3)nc3sc4c(c3c2=O)CCN(C(C)=O)C4)cc1 [Compound 7]	95	76	
99.1		107.6	CCOc1ccc(-n2c(SCC(=O)NC3CCN(C)CC3)nc3sc4c(c3c2=O)CCN(C(C)=O)C4)cc1 [Compound 30]	98		did not show significant activity
32.7	1250 ± 400	70.0	CCOc1ccc(-n2c(SCC(=O)NCc3ccccc3)nc3sc4c(c3c2=O)CCN(C(C)=O)C4)cc1 [Compound 31]	109	107	
15.3	2740 ± 660	28.3	CCOc1ccc(-n2c(SCC(=O)N3CCN(c4ccccc4)CC3)nc3sc4c(c3c2=O)CCN(C(C)=O)C4)cc1 [Compound 44]	97	98	
87.9		90.0	CCOc1ccc(-n2c(SCC(=O)NCc3ccccc3)nc3sc4c(c3c2=O)CCN(C)C4)cc1 [Compound 49]	99		did not show significant activity
73.1		47.9	CCOc1ccc(-n2c(SCC(=O)N(C)Cc3ccccc3)nc3sc4c(c3c2=O)CCN(C)C4)cc1 [Compound 50]	95		did not show significant activity
